Consider 14 molecules from US12391682B2, “Isoquinoline derivatives and their use for the treatment of parasitic infections” (Elanco Animal Health GmbH, priority 2019, dated 2025).

Test [1] has as its target D. immitis Slo-1 (Dirofilaria immitis, UniProt I0DFK5). Kind of test: In Vitro Assay 2: D. immitis Slo-1, membrane potential measurement in stable recombinant CHO cell line. It counts as cell-based.
Test [2] concerns Dirofilaria immitis microfilariae. Kind of test: In Vitro Assay 4: Dirofilaria immitis microfilariae (DIROIM L1), motility. As to conditions: 72 h, read-out: EC50 (reduction of motility in comparison to the negative control).
Test [3] has as its system Adult Nippostrongylus brasiliensis. Kind of test: In Vitro Assay 3: Nippostrongylus brasiliensis (NIPOBR), acetylcholine esterase readout. As to conditions: at 10 μg/ml (10 ppm), adult worms, read-out: activity (reduction of AChE compared to negative control). Here is the method:
In Vitro Assay 3: Nippostrongylus brasiliensis (NIPOBR)
Adult Nippostrongylus brasiliensis were washed with saline buffer containing 100 U/ml penicillin, 0.1 mg/ml streptomycin and 2.5 μg/ml amphotericin B. Test compounds were dissolved in DMSO and worms were incubated in medium in a final concentration of 10 μg/ml (10 ppm). An aliquot of the medium was used to determine the acetylcholine esterase activity in comparison to a negative control. The principle of measuring acetylcholine esterase as readout for anthelmintic activity was described in Rapson et al (1986) and Rapson et al (1987).

In test [4] the test system is Dirofilaria immitis. In words: In Vitro Assay 5: Dirofilaria immitis (DIROIM L4), motility. The conditions noted are these: 72 h, read-out: EC50 (reduction of motility in comparison to the negative control).
The target in test [5] is C. elegans Slo-1a (Caenorhabditis elegans, UniProt Q95V25).
Sequence of C. elegans Slo-1a (Q95V25 whole entry): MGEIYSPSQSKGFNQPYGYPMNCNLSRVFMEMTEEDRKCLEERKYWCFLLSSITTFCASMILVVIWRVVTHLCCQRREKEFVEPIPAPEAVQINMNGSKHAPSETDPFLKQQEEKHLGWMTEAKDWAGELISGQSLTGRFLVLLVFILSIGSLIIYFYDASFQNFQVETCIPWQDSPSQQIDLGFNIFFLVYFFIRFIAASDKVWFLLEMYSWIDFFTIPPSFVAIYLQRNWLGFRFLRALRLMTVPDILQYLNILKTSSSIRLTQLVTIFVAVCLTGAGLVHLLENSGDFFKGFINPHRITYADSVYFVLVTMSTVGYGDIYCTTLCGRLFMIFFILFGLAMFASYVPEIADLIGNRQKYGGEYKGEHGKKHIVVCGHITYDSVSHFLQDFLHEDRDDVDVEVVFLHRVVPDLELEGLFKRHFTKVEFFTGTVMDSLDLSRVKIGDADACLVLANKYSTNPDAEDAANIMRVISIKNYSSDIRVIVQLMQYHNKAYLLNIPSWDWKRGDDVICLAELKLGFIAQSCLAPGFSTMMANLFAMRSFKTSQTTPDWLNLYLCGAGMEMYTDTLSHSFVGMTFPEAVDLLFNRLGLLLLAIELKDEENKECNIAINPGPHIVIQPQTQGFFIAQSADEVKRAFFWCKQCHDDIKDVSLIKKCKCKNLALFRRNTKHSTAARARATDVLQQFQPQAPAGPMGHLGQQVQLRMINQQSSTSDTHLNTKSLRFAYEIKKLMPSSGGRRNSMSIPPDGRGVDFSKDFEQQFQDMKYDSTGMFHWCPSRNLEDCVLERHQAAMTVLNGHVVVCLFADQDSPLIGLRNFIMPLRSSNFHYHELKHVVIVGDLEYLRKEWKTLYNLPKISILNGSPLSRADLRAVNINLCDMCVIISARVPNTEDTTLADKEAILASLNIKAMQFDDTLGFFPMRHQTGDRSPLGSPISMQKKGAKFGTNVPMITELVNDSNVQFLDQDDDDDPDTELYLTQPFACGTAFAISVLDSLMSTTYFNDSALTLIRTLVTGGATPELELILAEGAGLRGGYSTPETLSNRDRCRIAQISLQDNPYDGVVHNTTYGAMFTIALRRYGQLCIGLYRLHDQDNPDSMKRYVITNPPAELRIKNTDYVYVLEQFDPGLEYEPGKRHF
Description: In Vitro Assay 1: C. elegans Slo-1a—Action at a Recombinant C. elegans Cell Line
Generation of a Stable Caenorhabditis elegans CHO Cell Line
A CHO cell line was obtained from ATCC, code ATCC CRL-9096. For transfection with plasmid DNA to express C. elegans Slo-1a (accession number AAL28102)CHO cells were passaged to 40% confluence before adding the transfection solution to the cell culture. The transfection solution included 300 μL OptiMEM (Life Technologies, Nr.: 31985), 2 μL (=6 μg) of plasmid DNA containing the C. elegans Slo 1a gene and 9 μL FugeneHD (Promega, Nr.: E2311), and was added to the cells prior to incubation for 48 hours at 37° C., 5% CO2. The transfection medium was exchanged for the selection medium which contains additional G418 (2 mg/ml, Invitrogen, Nr.: 10131) and the cells were seeded into 384 well plates (300 cells/well). […]
After starting the measurement of fluorescence using a FLIPR Tetra (Molecular Devices, Exc. 510-545 nm, Emm. 565-625 n), test compounds were added followed by the addition of KCl tyrode (final assay concentration: 70 mM KCl, 2 mM CaCl2, 1 mM MgCl2, 0.8 mM NaH2PO4, 5 mM Glucose, 28 mM Hepes, pH 7.4, including the voltage sensitive dye). […]
The data were evaluated by using the ActivityBase XLfit software (IDBS) for curve fitting and calculation of the half-maximal effective concentration (EC50) and are reported as negative decadic logarithm (pE50).

Sequence of D. immitis Slo-1 (I0DFK5 1-1119): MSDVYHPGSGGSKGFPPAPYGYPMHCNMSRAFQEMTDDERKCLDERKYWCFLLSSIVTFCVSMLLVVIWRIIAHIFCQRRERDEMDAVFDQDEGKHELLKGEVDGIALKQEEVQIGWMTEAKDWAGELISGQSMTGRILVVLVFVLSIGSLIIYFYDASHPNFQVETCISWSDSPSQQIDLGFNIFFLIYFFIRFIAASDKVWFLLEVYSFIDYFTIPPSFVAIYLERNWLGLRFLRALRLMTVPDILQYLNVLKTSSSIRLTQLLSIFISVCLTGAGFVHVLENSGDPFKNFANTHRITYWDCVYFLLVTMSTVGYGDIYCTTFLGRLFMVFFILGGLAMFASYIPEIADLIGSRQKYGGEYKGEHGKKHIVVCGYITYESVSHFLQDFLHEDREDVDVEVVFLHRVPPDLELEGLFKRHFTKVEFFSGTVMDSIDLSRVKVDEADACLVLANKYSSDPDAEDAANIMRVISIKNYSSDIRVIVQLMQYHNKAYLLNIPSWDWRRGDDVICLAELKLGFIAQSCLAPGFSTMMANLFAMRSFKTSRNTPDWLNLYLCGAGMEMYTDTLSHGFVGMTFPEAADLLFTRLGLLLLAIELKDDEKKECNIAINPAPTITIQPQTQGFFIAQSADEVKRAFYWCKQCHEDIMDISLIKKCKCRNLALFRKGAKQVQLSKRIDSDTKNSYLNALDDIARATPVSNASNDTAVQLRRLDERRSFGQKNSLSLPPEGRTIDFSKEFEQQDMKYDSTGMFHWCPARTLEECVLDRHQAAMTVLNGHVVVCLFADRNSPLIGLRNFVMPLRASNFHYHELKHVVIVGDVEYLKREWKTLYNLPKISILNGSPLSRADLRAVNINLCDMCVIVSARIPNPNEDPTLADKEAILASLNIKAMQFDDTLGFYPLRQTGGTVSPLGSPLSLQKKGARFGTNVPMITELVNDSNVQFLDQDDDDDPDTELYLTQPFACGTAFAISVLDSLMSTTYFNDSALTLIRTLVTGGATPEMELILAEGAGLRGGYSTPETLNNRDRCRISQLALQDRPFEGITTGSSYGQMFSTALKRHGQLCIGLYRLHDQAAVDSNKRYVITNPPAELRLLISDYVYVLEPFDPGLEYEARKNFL

`O=C(N[C@H]1CCOc2ccccc21)c1ncc2c(-c3cc(F)cc(F)c3F)cccc2c1N1CCOCC1` [Example I-1, N-[(4S)-3,4-dihydro-2H-chromen-4-yl]-4-(morpholin-4-yl)-8-(2,3,5-trifluorophenyl)isoquinoline-3-carboxamide]: the EC50 in test [1] is 3.16 to 31.6 nM; in test [2], less than 0.1 µg/mL; in test [4], less than 0.1 µg/mL. Further, the inhibition at 10 µg/mL in test [3] was more than 80%.

On to `Cc1c(C(=O)N[C@H]2CCOc3ccccc32)ncc2c(-c3cc(F)cc(F)c3F)cccc12` [Example I-2, N-[(4S)-3,4-dihydro-2H-chromen-4-yl]-4-methyl-8-(2,3,5-trifluorophenyl)isoquinoline-3-carboxamide], for which the EC50 is 316 to 5010 nM in test [1], less than 0.1 µg/mL in test [2] and less than 0.1 µg/mL in test [4]. Further, the inhibition at 10 µg/mL in test [3] is more than 80%.

Regarding `CC(C)c1c(C(=O)N[C@H]2CCOc3ccccc32)ncc2c(-c3cc(F)cc(F)c3F)cccc12` [Example I-3, N-[(4S)-3,4-dihydro-2H-chromen-4-yl]-4-isopropyl-8-(2,3,5-trifluorophenyl)isoquinoline-3-carboxamide], the EC50 in test [1] was 31.6 to 316 nM; in test [2], less than 0.1 µg/mL; in test [4], less than 0.1 µg/mL. For the same molecule, the inhibition at 10 µg/mL in test [3] is more than 80%.

With `CC(C)c1c(C(=O)N[C@H]2CCOc3ccccc32)ncc2c(-c3cc(Cl)cc(Cl)c3)cccc12` [Example I-4], the concentration for a half-maximal effect (EC50) in test [1] was 31.6 to 316 nM; in test [2], less than 0.1 µg/mL; in test [4], less than 0.1 µg/mL. Further, the inhibition at 10 µg/mL in test [3] is more than 80%.

As to `Cc1c(C(=O)N[C@H]2CCc3ccccc32)ncc2c(-c3cc(F)cc(F)c3F)cccc12` [Example I-7], the concentration giving a half-maximal response (EC50) was 316 to 5010 nM in test [1], less than 0.1 µg/mL in test [2] and less than 1 µg/mL in test [4]. The inhibition at 10 µg/mL in test [3] was more than 80%.

On to `O=C(N[C@H]1CCCc2ccccc21)c1ncc2c(-c3cc(Cl)cc(Cl)c3)cccc2c1N1CCOCC1` [Example I-8], for which the EC50 in test [5] was 3.16 to 31.6 nM; in test [1] it was 316 to 5010 nM; in test [2], less than 0.1 µg/mL; in test [4] it was less than 0.1 µg/mL. Also, the inhibition at 10 µg/mL in test [3] is more than 80%.

Take `O=C(N[C@H]1CCCc2ccccc21)c1ncc2c(-c3cc(F)cc(F)c3F)cccc2c1N1CCOCC1` [Example I-9]: the results for the half-maximal effective concentration (EC50) in test [1], in test [2] and in test [4] were 31.6 to 316 nM, less than 0.1 µg/mL and less than 0.1 µg/mL, respectively. In addition, in test [3], the inhibition at 10 µg/mL was more than 80%.

As for `O=C(N[C@H]1CCOc2ccccc21)c1ncc2c(-c3cc(Cl)cc(Cl)c3)cccc2c1N1CCOCC1` [Example I-11], the EC50 in test [1] was 316 to 5010 nM; in test [2], less than 0.1 µg/mL; in test [4], less than 0.1 µg/mL. Besides, the inhibition at 10 µg/mL in test [3] was more than 80%.

`CC(C)(C)c1cc(Cl)cc(-c2cccc3c(N4CCOCC4)c(C(=O)N[C@H]4CCOc5ccccc54)ncc23)c1` [Example I-12]: the EC50 is 316 to 5010 nM in test [1], less than 0.1 µg/mL in test [2] and less than 0.1 µg/mL in test [4]. The inhibition at 10 µg/mL in test [3] was more than 80%.

With `Cc1c(C(=O)N[C@H]2CCOc3ccccc32)ncc2c(-c3cc(Cl)cc(Cl)c3)cccc12` [Example I-13], the half-maximal effective concentration (EC50) in test [5] is 31.6 to 316 nM; in test [2], less than 0.1 µg/mL; in test [4] it was less than 1 µg/mL. Besides, the inhibition at 10 µg/mL in test [3] is more than 80%.

As to `O=C(NC1CCSc2ccc(F)cc21)c1ncc2c(-c3cc(F)cc(F)c3F)cccc2c1N1CCOCC1` (centres unmarked) [Example I-15], the EC50 in test [1] was 316 to 5010 nM; in test [2], less than 1 µg/mL; in test [4], less than 0.1 µg/mL.

As for `O=C(N[C@H]1CCOc2ccccc21)c1cnc2c(Br)cccc2c1N1CCOCC1` [IC-1, 8-Bromo-N-[(4S)-3,4-dihydro-2H-chromen-4-yl]-4-(morpholin-4-yl)quinoline-3-carboxamide], the EC50 in test [2] is less than 10 µg/mL.

`Cc1c(C(=O)N[C@H]2CCOc3ccccc32)ncc2c(Br)cccc12` [IC-2, 8-Bromo-N-[(4S)-3,4-dihydro-2H-chromen-4-yl]-4-methylisoquinoline-3-carboxamide]: in test [2], the EC50 is less than 10 µg/mL.

With `CC(C)c1c(C(=O)N[C@H]2CCOc3ccccc32)ncc2c(Br)cccc12` [IC-3, 8-Bromo-N-[(4S)-3,4-dihydro-2H-chromen-4-yl]-4-isopropylisoquinoline-3-carboxamide], the 50% effective concentration (EC50) in test [2] was less than 10 µg/mL.

The EC50 is the concentration that produces a half-maximal response.
